The text below walks through data of US20250120989A1, “BRIDGED TRICYCLIC CARBAMOYLPYRIDONE COMPOUNDS AND USES THEREOF” (priority 2023, published 2025).

Molecules are shown by their SMILES. ≈ marks a conversion by molar mass, not a printed value.

The nature of data set [1]: in vitro. The note with it: human, uninfected MT-4 cells.
Data set [2] deals with HIV-1 (IIIB). The data set is described as follows: microbe, parasite or virus in culture. As to conditions: Human immunodeficiency virus 1, MT4, 120 h; HIV-1 (IIIB) replication in MT-4 cells, 5 days, Cell Titer Glo; read-out: MT4 EC50. The class given is cell-based. (In general: Cellular ATP, detected with luciferase, serves as a proxy for viable cell number.)
Data set [3] is described as follows: Dog PO pharmacokinetic studies with P-gp inhibitor encequidar mesylate (Example E). The note with it: for AUCinf, CMAX and oral bioavailability when administered with encequidar mesylate versus without / AUC(0-inf) / Cmax / bioavailability: dosed compound measured; for AUCinf, CMAX and oral bioavailability when administered with encequidar mesylate versus without: Table 5 versus Table 4, FIG. 1 and 2; for AUC(0-inf) / Cmax / bioavailability: male, beagle, plasma, dog PO 4 mg/kg, encequidar mesylate 5 mg-eq/kg PO about 30 min before. Type of data set: in vivo, beagle dog. The method, then: Three male beagle dogs were fasted overnight. […] Individual doses were calculated based on body weights recorded on the day of dose administration. […] This was followed by an additional 20 mL of water administered via oral gavage. The total flush volume was approximately 30 mL. Individual doses were administered on a […]. In all cases, food was returned at approximately 4 hours after dosing. […] Bioanalysis was carried out according to Example C.

The nature of data set [4]: physchem. As to conditions: FaSSIF, 23 °C, thermodynamic from solid.

For orientation: CC50 means the concentration giving 50% cytotoxicity. In general, EC50 refers to the concentration at which the effect is half-maximal. A word on the thermodynamic solubility: it is solubility found after equilibrating the solid with the medium. `COC1=NO[C@@]2(CC[C@H](C)N3C[C@H]2n2cc(C(=O)NCc4ccc(F)cc4F)c(=O)c(OCOC(=O)OCCOP(=O)(O)O)c2C3=O)C1` [Compound 3, (((3′S,5S,7′R)-10′-((2,4-difluorobenzyl)carbamoyl)-3-methoxy-3′-methyl-1′,11′-dioxo-1′,4′,5′,11′-tetrahydro-3′H,4H,7′H-spiro[isoxazole-5,6′-[2,7]methanopyrido[1,2-a][1,4]diazonin]-12′-yl)oxy)methyl (2-(phosphonooxy)ethyl) carbonate]: in data set [1], the 50% cytotoxic concentration (CC50) at 5 days turned out to be 13 µM. Further, the EC50 in data set [2] came to 0.46 nM. Moreover, the “AUCinf, CMAX and oral bioavailability of Intermediate C when prodrug is administered with encequidar mesylate versus without” value in data set [3] (dog PO, Intermediate C measured, Table 5 Entry 3 versus Table 4 Entry 3, FIG. 3) was “increased”. The same compound yielded a solubility (thermodynamic) at 24 h in data set [4] of 6650 µg/mL (≈ 9.49 mM).

In data set [1], `CC[C@H](COC(=O)OCOc1c2n(cc(C(=O)NCc3ccc(F)cc3F)c1=O)[C@@H]1CN(C2=O)[C@@H](C)CC[C@]12CC(OC)=NO2)OP(=O)(O)O` [Compound 65, (((3′S,5S,7′R)-10′-((2,4-difluorobenzyl)carbamoyl)-3-methoxy-3′-methyl-1′,11′-dioxo-1′,4′,5′,11′-tetrahydro-3′H,4H,7′H-spiro[isoxazole-5,6′-[2,7]methanopyrido[1,2-a][1,4]diazonin]-12′-yl)oxy)methyl ((R)-2-(phosphonooxy)butyl) carbonate] had a CC50 at 5 days of 14.1 µM. For the same compound, the 50% effective concentration (EC50) in data set [2] came out at 1.02 nM. This compound registered a solubility (thermodynamic) at 24 h in data set [4] of 3880 µg/mL (≈ 5.33 mM).

`CC[C@@H](COC(=O)OCOc1c2n(cc(C(=O)NCc3ccc(F)cc3F)c1=O)[C@@H]1CN(C2=O)[C@@H](C)CC[C@]12CC(C)=NO2)OP(=O)(O)O` [Compound 66, (((3′S,5S,7′R)-10′-((2,4-difluorobenzyl)carbamoyl)-3,3′-dimethyl-1′,11′-dioxo-1′,4′,5′,11′-tetrahydro-3′H,4H,7′H-spiro[isoxazole-5,6′-[2,7]methanopyrido[1,2-a][1,4]diazonin]-12′-yl)oxy)methyl ((S)-2-(phosphonooxy)butyl) carbonate] registered a CC50 at 5 days in data set [1] of 12.8 µM. The EC50 in data set [2] was found to be 2.07 nM. The compound also returned a thermodynamic solubility at 24 h in data set [4] of 4270 µg/mL (≈ 5.99 mM).

`CC[C@@H](COC(=O)OCOc1c2n(cc(C(=O)NCc3ccc(F)cc3F)c1=O)[C@@H]1CN(C2=O)[C@@H](C)CC[C@]12CC(OC)=NO2)OP(=O)(O)O` [Compound 67, (((3′S,5S,7′R)-10′-((2,4-difluorobenzyl)carbamoyl)-3-methoxy-3′-methyl-1′,11′-dioxo-1′,4′,5′,11′-tetrahydro-3′H,4H,7′H-spiro[isoxazole-5,6′-[2,7]methanopyrido[1,2-a][1,4]diazonin]-12′-yl)oxy)methyl ((S)-2-(phosphonooxy)butyl) carbonate] showed a cytotoxic concentration (CC50) at 5 days in data set [1] of 14.4 µM. The EC50 in data set [2] was 2.41 nM. This compound also yielded a thermodynamic solubility at 24 h in data set [4] of 5180 µg/mL (≈ 7.12 mM).

Turning to `COC1=NO[C@@]2(CC[C@H](C)N3C[C@H]2n2cc(C(=O)NCc4ccc(F)cc4F)c(=O)c(OCOC(=O)OC[C@H](C)COP(=O)(O)O)c2C3=O)C1` [Compound 68, (((3′S,5S,7′R)-10′-((2,4-difluorobenzyl)carbamoyl)-3-methoxy-3′-methyl-1′,11′-dioxo-1′,4′,5′,11′-tetrahydro-3′H,4H,7′H-spiro[isoxazole-5,6′-[2,7]methanopyrido[1,2-a][1,4]diazonin]-12′-yl)oxy)methyl ((S)-2-methyl-3-(phosphonooxy)propyl) carbonate], the midpoint of cytotoxicity in data set [1], the CC50 at 5 days, lay at 16.1 µM. The EC50 in data set [2] came out at 2.11 nM. The compound further returned a solubility (thermodynamic) at 24 h in data set [4] of 4620 µg/mL (≈ 6.35 mM).

In data set [1], `CC1=NO[C@@]2(CC[C@H](C)N3C[C@H]2n2cc(C(=O)NCc4ccc(F)cc4F)c(=O)c(OCOC(=O)OC[C@H](C)COP(=O)(O)O)c2C3=O)C1` [Compound 69, (((3′S,5S,7′R)-10′-((2,4-difluorobenzyl)carbamoyl)-3,3′-dimethyl-1′,11′-dioxo-1′,4′,5′,11′-tetrahydro-3′H,4H,7′H-spiro[isoxazole-5,6′-[2,7]methanopyrido[1,2-a][1,4]diazonin]-12′-yl)oxy)methyl ((S)-2-methyl-3-(phosphonooxy)propyl) carbonate] showed a CC50 at 5 days of 17.3 µM. Further, the 50% effective concentration (EC50) in data set [2] was found to be 2.9 nM. Further, the thermodynamic solubility at 24 h in data set [4] was determined as 4600 µg/mL (≈ 6.46 mM).

The term AUC(0-inf) denotes the area under the concentration-time curve extrapolated to infinity. Low readings indicate low exposure, high ones high exposure. By Cmax is commonly meant the peak of the concentration-time curve. The bioavailability is the share of a dose that reaches the circulation, judged against a reference dose that is usually intravenous. High values mean good availability, low ones poor availability. Consider `CC1=NO[C@@]2(CC[C@H](C)N3C[C@H]2n2cc(C(=O)NCc4ccc(F)cc4F)c(=O)c(O)c2C3=O)C1` [Intermediate B, (3′S,5S,7′R)—N-(2,4-difluorobenzyl)-12′-hydroxy-3,3′-dimethyl-1′,11′-dioxo-1′,4′,5′,11′-tetrahydro-3′H,4H,7′H-spiro[isoxazole-5,6′-[2,7]methanopyrido[1,2-a][1,4]diazonine]-10′-carboxamide], for which the “AUCinf, CMAX and oral bioavailability when administered with encequidar mesylate versus without” value in data set [3] (dog PO) was “increased”. In data set [3], this compound gave a total exposure AUC(0-inf) of 3980 ± 762 µM·h, a Cmax of 80.8 ± 4.9 µM and a bioavailability of 70.3 ± 1.8%. For the same compound, in data set [4], the solubility (thermodynamic) at 24 h stood at 2 µg/mL (≈ 0.00411 mM).

On to `COC1=NO[C@@]2(CC[C@H](C)N3C[C@H]2n2cc(C(=O)NCc4ccc(F)cc4F)c(=O)c(O)c2C3=O)C1` [Intermediate C, (3′S,5S,7′R)—N-(2,4-difluorobenzyl)-12′-hydroxy-3-methoxy-3′-methyl-1′,11′-dioxo-1′,4′,5′,11′-tetrahydro-3′H,4H,7′H-spiro[isoxazole-5,6′-[2,7]methanopyrido[1,2-a][1,4]diazonine]-10′-carboxamide], for which the “AUCinf, CMAX and oral bioavailability when administered with encequidar mesylate versus without” value in data set [3] (dog PO) is “increased”. In data set [3], this compound registered an AUC(0-inf) of 2300 ± 171 µM·h, a peak concentration (Cmax) of 62 ± 3.5 µM and a bioavailability of 82.3 ± 13.4%.
